Assays:
[1] = test system: db/db mice (type-II diabetes model mice); assay: Test Example 1: hemoglobin A1c lowering action and hyperglycemic condition improving effect, 40-day oral administration; format: in vivo; settings: male db/db mice; for changes over time in random blood glucose levels / changes over time in fasting blood glucose levels / Hemoglobin A1c relative levels (%) 35th day from the administration: oral 1 mL of 1 μg/mL once a day; for changes over time in random blood glucose levels / changes over time in fasting blood glucose levels: 40 consecutive days; for changes over time in random blood glucose levels: FIG. 1; for changes over time in fasting blood glucose levels: after 15 hours of fasting, FIG. 2; for Hemoglobin A1c relative levels (%) 35th day from the administration: negative sample = 100
Procedure: This test was performed in order to evaluate the hemoglobin A1c lowering action and the hyperglycemic condition improving effect of the compounds of the present invention.
The compound 2 (4-methylcholest-7-en-3-ol), compound 3 (4-methylergost-7-en-3-ol) and compound 4 (4-methylstigmast-7-en-3-ol) produced in Preparation Example 1 mentioned above were used as test samples 1, 2 and 3, respectively.
Six-week old male db/db mice (purchased from Clea Japan, Inc.) were used as type-II diabetes model mice. These mice were divided into groups, each consisting of 7 animals. Each test sample was dissolved in DMSO, and the concentration was adjusted to 1 μg/mL with physiological saline. The final DMSO concentration was adjusted to 0.2%. […] The type-II diabetes model mice were orally administered with 1 mL of any of the test sample solutions once a day everyday with a sonde for 40 consecutive days. Further, β-sitosterol (Tama Biochemical Co., Ltd.) was administered to the model mice as a control sample 1. Fasting blood glucose levels and random blood glucose levels were measured over time by using Antisense II (Bayer-Sankyo Co., Ltd.). The fasting blood glucose levels were measured after 15 hours of fasting. Further, on the 35th day from the start of the administration, hemoglobin A1c levels were measured by using DCA 2000 (Bayer-Sankyo Co., Ltd.).

[2] = test system: db/db mice (type-II diabetes model mice); assay: Test Example 2: hemoglobin A1c lowering action compared with a clinical antidiabetic drug, 22-day oral administration; format: in vivo; settings: male db/db mice; for Hemoglobin A1c relative levels (%) 23th day from the administration: oral 1 mL once a day for 22 days (test samples 1 μg/mL; control sample 2 7.5 μg/mL pioglitazone hydrochloride), negative sample = 100; for decrease in hemoglobin A1c level in comparison with the negative sample: oral once a day, 23rd day
Procedure: Six-week old male db/db mice (purchased from Clea Japan, Inc.) were used as type-II diabetes model mice. These mice were divided into groups, each consisting of 7 animals. Each test sample was dissolved in DMSO, and the concentration was adjusted to 1 μg/mL with physiological saline. The final DMSO concentration was adjusted to 0.2%. […] Further, as a control sample 2, ACTOS® tablets (Takeda Pharmaceutical Co., Ltd.) were ground in a mortar and dissolved in physiological saline so that the concentration of pioglitazone hydrochloride as the active ingredient should become 7.5 μg/mL.

SMILES | changes over time in random blood glucose levels [1] | changes over time in fasting blood glucose levels [1] | Hemoglobin A1c relative levels (%) 35th day from the administration ([1]; 35th day) | decrease in hemoglobin A1c level in comparison with the negative sample ([1]; oral once a day, 35th day) | hemoglobin A1c lowering effect (in words) ([1]; oral once a day, 35th day) | Hemoglobin A1c relative levels (%) 23th day from the administration [2] | decrease in hemoglobin A1c level in comparison with the negative sample [2]
CC[C@H](CC[C@@H](C)[C@H]1CC[C@H]2[C@@H]3CC=C4C[C@@H](O)CC[C@]4(C)[C@H]3CC[C@]12C)C(C)C [control sample 1, β-sitosterol, reference compound] | rapid increases were observed | rapid increases were observed | 94.8 ± 8.5% | about 0.5% | almost no hemoglobin A1c lowering effect was observed | – | –
CC(C)CCCC(C)C1CCC2C3=CCC4C(C)C(O)CCC4(C)C3CCC21C (stereo not shown) [test sample 1, 4-methylcholest-7-en-3-ol] | effect of suppressing the increase in blood glucose levels was clearly observed | effect of suppressing the increase in blood glucose levels was clearly observed | 80.2 ± 19.2% | – | – | 89.9 ± 9.0% | about 11%
CC(C)C(C)CCC(C)C1CCC2C3=CCC4C(C)C(O)CCC4(C)C3CCC21C (stereo not shown) [test sample 2, 4-methylergost-7-en-3-ol] | effect of suppressing the increase in blood glucose levels was clearly observed | effect of suppressing the increase in blood glucose levels was clearly observed | 82.7 ± 21.0% | – | – | 91.0 ± 6.7% | about 11%
CCC(CCC(C)C1CCC2C3=CCC4C(C)C(O)CCC4(C)C3CCC21C)C(C)C (stereo not shown) [test sample 3, 4-methylstigmast-7-en-3-ol] | effect of suppressing the increase in blood glucose levels was clearly observed | effect of suppressing the increase in blood glucose levels was clearly observed | 77.8 ± 12.2% | – | – | 88.8 ± 9.0% | –

— patent US8338403B2, “Drug for improving hyperglycemia” (Morinaga Milk Industry Co., Ltd., priority 2004, dated 2012)
